The structures appear in SMILES notation.

One experiment deals with HL60 MDR tumor. The experiment in a line: tumor volume of HL60 MDR tumor implanted in nude mice. Type of experiment: in vivo. Particulars: for tumor volume: 200 ug Etomoxir, 2.5 mM 2-Deoxy-D-glucose. The source says:
Tumor implantation. Mice were purchased from the Animal Production Program of National Cancer Institute, Frederick, Md. The animals used were Athymic Ncr-nu/nu (strain code 01B74). HL60 MDR cells were harvested and reconstituted at 1 million cells per 100 microliters of phosphate buffered saline. One million tumor cells per injection site were implanted subcutaneously on two sites of the animal's back. Treatments began at exactly seven days post tumor implantation. Tumor size/volume was monitored twice weekly using measurement calipers, with the formula Tumor Volume=π×(short diameter)^2×(long diameter)/6.
Mice experiments with fatty acid metabolism and glucose metabolism inhibitors. Fatty acid metabolism inhibitors were exemplified by etomoxir at 200 micrograms/day. Glucose metabolism inhibitors were exemplified by 2-deoxy-D-glucose at 2.5 mM in 100 microliters daily. The combination was administered daily, etomoxir at 200 micrograms and 2-deoxy-D-glucose at 2.5 mM in 100 microliters. All drugs were administered intra-peritoneally. Fluorouracil, at 20 mg per kilogram mouse, was injected intra-peritoneally once a week
HL60 MDR human leukemia cells were cultured and implanted in nude mice as described above under “Materials and Methods”. The mice were given 200 ug of Etomoxir, 2.5 mM 2-Deoxy-D-glucose, or both 200 ug of Etomoxir and 2.5 mM 2-Deoxy-D-glucose given daily by IP injection. Treatment began exactly one week after tumor implantation.
Mice were purchased from National Cancer Institute, Animal Production Program (Frederick, Md.). The animals used were Athymic Ncr-nu/nu (Strain code 01B74). HL60 MDR cells were harvested and reconstituted at 1 million cells per 100 microliters of phosphate buffered saline. One million tumor cells/per injection site were implanted subcutaneously on two sites of the animal's back. Treatments began at exactly seven days post tumor implantation. Tumor size/volume was monitored twice weekly using measurement calipers with the formula for Tumor Volume=π(short diameter)^2(long diameter)/(divided by )6. […]

Experiment [1] relates to drug resistant L1210/DDP cells. The experiment in a line: cell-surface Fas expression by flow cytometry, L1210/DDP. Type of experiment: cell-based. As to the method:
Cell Surface Staining. Non-permeabilized cells were stained with antibodies to the cell surface receptors Fas (CD95) (Pharmingen) or with antibodies to uncoupling proteins (anti-UCP2 antibody) (Alpha Diagnostic International). Antibodies for both the isotype control and actual stain were added to the cell suspension, mixed, and then placed on ice for and incubation of 25 minutes in the dark. Subsequently the cells were centrifuged at 300×g for 5 minutes and the supernatant removed. The cells were washed one time with 100 μL of PBS/2.5% FBS and then transferred into flow cyotmetric tubes containing 500 μL of PBS/2.5% FBS for analysis.
Geometric Mean Fluorescence. When analyzing data on Cell Quest software, a geometric mean value will be given for each histogram plotted. Once the stained sample was plotted against the control (isotype or unstained), geometric mean fluorescence values were obtained for both histogram peaks. The stained control sample value was subtracted from sample to identify the actual fluorescence of the stained sample over that of the control.
Drug sensitive L1210 cells and drug resistant L1210/DDP cells were cultured with etomoxir for 24 hours (Tx indicates treatment with etomoxir). The level of cell-surface Fas was determined using fluorochrome conjugated anti-Fas antibodies and flow cytometry. The Fas levels are measured relative to a control for staining artifacts. […]

For another experiment, the system named is L1210 DDP cells. The experiment in a line: mitochondrial membrane potential (MitoTracker), L1210 DDP. Type of experiment: cell-based. Particulars: 24 hours of incubation, FIG. 11. As to the method: Flow Cytometry. Cells were harvested, counted, and resuspended at 10^6 cells/100 μl of PBS containing 2.5% fetal calf serum in preparation for flow cytometric analysis. Cells were stained for intracellular H202 using 6-carboxy-2′,7′-dichlorodihydrofluorescein diacetate (DCF-DA, Molecular Probes, Eugene, Oreg.). Briefly, cells were incubated at 37° with 1 mM DCF-DA for 20 minutes, washed twice in PBS containing 2.5% fetal calf serum and analyzed flow cytometrically. Mitochondrial membrane potential was assessed using Mitotracker Red (CM-H2XROS, Molecular Probes, Eugene, Oreg.). […] The cells were incubated at 37° for 20 minutes, washed twice in PBS containing 2.5% fetal calf serum and analyzed flow cytometrically. Data were acquired on a Coulter Elite Epics or Excel flow cytometer (Coulter, Hialeah, Fla.) and analyzed with CellQuest software, (Becton Dickinson, San Jose, Calif.). […] Each sample population was classified for cell size (forward scatter) and complexity (side scatter), gated on a population of interest and evaluated using 5,000 cells. […]
We measured the effects of etomoxir on metabolism by measuring mitochondrial membrane potential with a fluorescent dye (Mitotracker Red, Molecular Probes, Eugene, Oreg.) which fluoresces as a function of mitochondrial potential. […]

As to `CCOC(=O)C1(CCCCCCOc2ccc(Cl)cc2)CO1` (centres unmarked) [etomoxir, 2-(6-(4-chlorophenoxy)-hexyl)-oxirane-2-carboxylic acid ethyl ester], the tumor volume in the experiment with HL60 MDR tumor (Day 7, daily IP from one week after implantation) turned out to be 36 mm^3; in the experiment with HL60 MDR tumor (Day 9, daily IP), 71.73 mm^3; with HL60 MDR tumor (Day 15, daily IP), 261.35 mm^3; in the experiment on HL60 MDR tumor (Day 21, daily IP) it was 895.09 mm^3. For the same compound, the “effect on tumor growth” value in the experiment on HL60 MDR tumor (HL60 MDR in nude mice, 21 day period, single agent) is “increase in tumor growth”. Also, the “cell-surface Fas expression” value in experiment [1] (L1210/DDP, cultured with etomoxir for 24 hours) is listed as “significant increases in cell surface Fas”. Besides, the “cell surface Fas, combination with methotrexate” value in experiment [1] (methotrexate-treated L1210 DDP, FIG. 8) is reported as “promotes increases in cell surface Fas”. Further, in the experiment on L1210 DDP cells, the “mitochondrial membrane potential (MitoTracker)” value is “increase the mitochondrial membrane potential”.

The values above are taken from patent US8293240B2, “Method of treating drug-resistant cancer” (The Regents of the University of Colorado, priority 2004, dated 2012).
